Entries after “also recorded” stand apart in the source; their conditions may differ. Where two headings read alike, the source gives them in different places.
What was measured:
IL-1β = experiment: LPS/ATP-induced IL-1β in human microglia cells; type: cell-based; conditions: as compared with […] distilled water in presence of LPS and ATP
TNF-α = experiment: LPS/ATP-induced TNF-α secretion by human microglia cells (Luminex); type: cell-based
Description: (§1) In addition to the studies discussed above assessing activity of combinations of drugs on MPP+-induced neurodegeneration toxicity on human dopaminergic neurons and measuring neuronal growth and neurite branching, we also assessed combinations of drugs in reducing lipopolysaccharide (LPS, from E. coli)-induced neuroinflammation.
(§2) Lipopolysaccharides are important outer membrane components of gram-negative bacteria such as E. coli and salmonella. They are large amphipathic glycoconjugates that typically consist of a lipid domain (hydrophobic) attached to a core oligosaccharide and a distal polysaccharide. LPS binds to Toll-like receptor 4 (TLR4) and activates microglia (51) which in turn increases secretion of pro-inflammatory cytokines such as interleukin-6 (IL-6), tumor necrosis factor-α (TNF-α), and CXCL1/GROα.
(§3) Microglia cells were obtained from an iCell® Microglia kit, 01279 (Catalogue N° R1131) from FUJIFILM Cellular Dynamics. We followed the manufacturer's protocol for activation of the microglial cells with LPS/ATP to subsequently measure the effect of the study drugs on pro-inflammatory cytokines IL-6, TNF-α and CXCL1/GROα.
(§4) All cell culture procedures were performed in aseptic conditions, under a laminar flow hood. Microglia were thawed and cultured following the provider's instructions. The microglia were plated at 50,000 cells per well of a Corning Primaria 96 well plate (Ref N° 353872) in 100 μL of growth medium. Cells were incubated at 37° C./5% CO2 in a humidified cell culture incubator.
(§5) Three days after cell plating, the test or reference substances (25 μL of solutions at 5×) were applied 1 hour before LPS and ATP stimulation.
(§6) One hour later, 12.5 μL of test or reference substances were added again at 2× concentrated followed by 12.5 μL of LPS at 12× concentration. Fifty microliters of ATP were introduced at 4× concentration, 5 h 30 min after incubation with LPS.
(§7) Six hours after LPS incubation, the supernatant of each well was collected and centrifugated at 1000 g for 10 minutes to remove the cells and debris.
(§8) Fifty microliters of supernatant from NT and LPS+ATP-treated wells were used to determine cytokine secretion (IL-6, TNF-α, CXCL1/GROα) by Luminex platform according to the provider's instructions. Samples were diluted prior to the assay to fit within the standard range if needed. Three wells were tested per each condition (Table 10). Cytokines levels in the supernatant were expressed in pg/mL. The data was analyzed using a One-Way ANOVA followed by Bonferroni test.

IL-6 = experiment: LPS/ATP-induced IL-6 secretion by human microglia cells (Luminex); type: cell-based; conditions: for anti-inflammatory effect on activated microglia, all three cytokines: LPS and ATP, IL-6, TNF-α, GROα together (FIG. 8, 9, 10)
Description: as §1, §2, §3, §4, §5, §6, §7, §8

CXCL1/GROα = experiment: LPS/ATP-induced CXCL1/GROα secretion by human microglia cells (Luminex); type: cell-based
Description: as §1, §2, §3, §4, §5, §6, §7, §8

PrP = conditions: cell-free aggregation assays, chronically and acutely infected cell cultures; cited from earlier work
[1] = tested on: human dopaminergic neurons (iCell DopaNeurons); experiment: MPP+-induced neurotoxicity: cytolysis of iCell DopaNeurons; type: cell-based
Description: (§9) We conducted an in vitro study of the drugs in Table 1 to evaluate the neuroprotective effects of 44 conditions of treatment (Table 2, experiments 1-41; 51-53) against MPP+-induced neurodegeneration toxicity on human dopaminergic neurons (iCell® DopaNeurons: iPS cell-derived human midbrain floorplate dopaminergic neurons). Further combinations (Table 2, experiments 42-50 and Table 3) are also disclosed.
(§10) Three different measurements were made in the experiments. 1. Neurite length in mm is a measure of increase in dendrite length of neurons. […] 2. neurite branching is measure of dendrite branching. […] 3. Cytolysis of the cells is a measure of cell death. […] Experimental conditions were measured relative to the results of healthy cells in the studies.
(§11) Procedure. iCell DOPA neurons were thawed and cultured following the provider's instructions in Brainphys medium+provided supplements+1% N2 supplement (Stemcell Technologies)+penicillin/streptomycin+Laminin. They were plated at 20000 cells per well of a 384 well plate (pre-coated with poly-D-lysine and Laminin) in 70 μL of growth medium. Cells were incubated at 37° C./5% CO2 in a humidified cell culture incubator. Half of the culture medium was changed twice a week.
(§12) MPP+-induced neurotoxicity: 24 hours after neuronal plating, half of the medium was removed and the test compounds were applied with MPP+ treatment, both concentrated at 4×, were added to the wells. For each condition, six aliquots were added, corresponding to columns A-F in Table 2. Except for the NT/NT row, in each row, either the compound indicated dissolved in its vehicle noted in Table 1 was added, or only a vehicle was added as indicated. Column F is an indicator of whether MPP+ was added. If not, only the medium was added.
(§13) For the evaluation of conditions 1-28, Neurite outgrowth was followed for subsequent 48 hours using an Incucyte Zoom platform with one phase contrast image every 4 hours, using a 20× objective. After 48 hours, the medium containing test compounds and MPP+ was removed and replaced by fresh medium containing a fluorescent cytolysis marker (red fluorescence) and a live cell marker (green fluorescence). For the evaluation of conditions 29-53, Neurite outgrowth was followed similarly for subsequent 72 hours after MPP+ was added.
Data was normalized to control conditions as there is basal cytolysis in the cell culture after thawing.
Fluorescently immuno-stained cells were imaged on a high content imaging platform. Individual segmentation of cells was performed by image analysis of the MAP2 and NeuN staining. The number of neurons and the neurite length were measured. The percentage of cytolyzed cells was also calculated.
(§14) Statistical analysis. We used one-way ANOVA followed by Bonferroni's multiple comparisons test.

[2] = tested on: human dopaminergic neurons (iCell DopaNeurons); experiment: MPP+-induced neurotoxicity: neurite outgrowth (neurite length, branch points) of iCell DopaNeurons, Incucyte; type: cell-based
Description: as §9
iCell DOPA neurons are neural floor plate-derived midbrain dopaminergic neurons generated from human induced pluripotent stem cells (iPSCs). Dopaminergic neurons, specifically those located in the floor plate-derived midbrain are implicated in neurological disorders such as Parkinson's disease, MSA and DLBD among others. Thus iCell DopaNeurons provide a highly relevant in vitro model to investigate these types of pathologies (42, 43). The iCellDopa neurons were supplied from FUJIFILM Cellular Dynamics.
as §10, §11, §12, §13
Each condition 1-41 and 51-53 was repeated in 8 wells of a 384 well plate, that is, each test condition studied in Table 2 was repeated eight times. NT/NT were cells in the standard medium only. Control/NT are the cells in the vehicle (as described above), with and without MPP+.
Assay endpoints and data analysis. Phase contrast images were analyzed at each time point to determine the neurite length and number of branch points per mm^2. Kinetic data was plotted and kinetics were normalized by subtracting the value of the first data point (at time of treatment), allowing to measure changes in neurite outgrowth only from the onset of the treatment, starting at zero. Area Under Curve (AUC) of kinetic data was obtained and used for plotting compound's effects and perform statistical analyzes.
as §14

[3] = pre-treatment 50 mg/kg for 3 days; cited from earlier work
[4] = chronic PD and DLBD mouse models; cited from earlier work
[5] = as compared with […] distilled water in presence of LPS and ATP
[6] = MPP+ 100 μM, Table 8.1 (FIG. 6C), PCI 30 μM
[7] = MPP+ 100 μM, Table 6.1 (FIG. 6A), followed 72 hours, PCI 30 μM
[8] = MPP+ 100 μM, Table 7.1 (FIG. 6B), followed 72 hours, PCI 30 μM
[9] = LPS 100 ng/mL + ATP 5 mM, 6 h after LPS, TAK-242 2 μM, MCC950 10 μM
[10] = LPS 100 ng/mL + ATP 5 mM, 6 h after LPS, three wells, TAK-242 2 μM, MCC950 10 μM

## CCOC(=O)C1=CCCC[C@H]1S(=O)(=O)Nc1ccc(F)cc1Cl [TAK-242]
IL-1β
  concentration of IL-1β: significantly decreased
TNF-α; [5]
  concentration of TNF-α: significantly decreased
IL-6; [5]
  concentration of IL-6: significantly decreased
CXCL1/GROα; [5]
  concentration of GROα: significantly decreased

## C[C@H](CCC(=O)NCCS(=O)(=O)O)[C@H]1CC[C@H]2[C@@H]3[C@@H](O)C[C@@H]4C[C@H](O)CC[C@]4(C)[C@H]3CC[C@]12C [TUDCA, tauroursodeoxycholic acid]
PrP
  PrP conversion: substantially reduced PrP conversion
[1]; [6]
  Cytolysis, %, Plate 1, Mean ± S.D.: 70.69 ± 2.02%
IL-6
  anti-inflammatory effect on activated microglia, all three cytokines: Anti-inflammatory effects of the individual drugs were observed
[2]; [7]
  Neurite length data, plate 1, Mean: 1825.9 mm/mm^2
[2]; [8]
  Neurite Branching Data, Plate 1, Mean ± S.D.: 58836.3 ± 9596.4 per mm^2
[2]; MPP+ 100 μM, conditions 29-53, followed 72 hours (FIG. 6A, 7A)
  neurite length increased as compared with MPP+ alone: 43%
[2]; MPP+ 100 μM, conditions 29-53, followed 72 hours (FIG. 6B, 7B)
  number of branches increased as compared with MPP+ alone: 60%
[3]
  neurodegeneration of the nigral dopaminergic neurons caused by MPTP: significantly reduced neurodegeneration

## COc1cc2nc(N3CCN(C(=O)C4CCCO4)CC3)nc(N)c2cc1OC (stereo not shown) [TZ, Terazosin]
[1]; [6]
  Cytolysis, %, Plate 1, Mean ± S.D.: 72.78 ± 2.29%
[2]; [7]
  Neurite length data, plate 1, Mean: 1102.2 mm/mm^2
[2]; [8]
  Neurite Branching Data, Plate 1, Mean ± S.D.: 31244.4 ± 12478.9 per mm^2
[2]; MPP+ 100 μM, vs MPP+ alone
  effects on neurite outgrowth: no significant effects

## Sodium Phenylbutyrate [PBA]
[4]
  disease progression: halted the disease progression
[1]
  Cytolysis, %, Plate 1, Mean ± S.D.: 72.06 ± 1.77%
TNF-α; [9]
  TNF-α in supernatant, Replicate 1: 32.67 pg/mL
  TNF-α in supernatant, Replicate 2: 35.47 pg/mL
  TNF-α in supernatant, Replicate 3: 32.24 pg/mL
TNF-α; [10]
  TNF-α in supernatant, Mean ± S.D.: 33.46 ± 1.75 pg/mL
TNF-α; [5]
  decrease of TNF-α concentration: 44%
IL-6; [9]
  IL-6 in supernatant, Replicate 1: 396.23 pg/mL
  IL-6 in supernatant, Replicate 2: 363.94 pg/mL
  IL-6 in supernatant, Replicate 3: 305.53 pg/mL
IL-6; [10]
  IL-6 in supernatant, Mean ± S.D.: 355.23 ± 45.97 pg/mL
IL-6
  anti-inflammatory effect on activated microglia, all three cytokines: Anti-inflammatory effects of the individual drugs were observed
IL-6; [5]
  decrease of IL-6 concentration: 49%
CXCL1/GROα; [9]
  CXCL1/GROα in supernatant, Replicate 1: 627.29 pg/mL
  CXCL1/GROα in supernatant, Replicate 2: 383.60 pg/mL
  CXCL1/GROα in supernatant, Replicate 3: 476.49 pg/mL
CXCL1/GROα; [10]
  CXCL1/GROα in supernatant, Mean ± S.D.: 495.79 ± 122.99 pg/mL
[2]
  Neurite Branching Data, Plate 1, Mean ± S.D.: 46742.8 ± 7107.5 per mm^2
  Neurite length - Baseline-corrected AUC (0-72 h), Mean: 853.7 mm/mm^2
  Neurite length data, plate 1, Mean: 1681.1 mm/mm^2
  Number of branch points per mm^2 - Baseline-corrected AUC (0-72 h), Mean: 41712.8 per mm^2
  number of branches as compared with MPP+ alone: significantly increased
  number of branches increased as compared with MPP+ alone (control/MPP+): 89%
  protective effect against MPP+: showed the protective effect, but to a substantially lesser effect than when combined; also recorded: showed protective effect, but it was not statistically significant

Reference: patent US20240058288A1, “DRUG COCKTAIL FOR TREATMENT OF PARKINSON'S DISEASE, LEWY BODY DISEASE AND MULTIPLE SYSTEM ATROPHY” (ALETA NEUROSCIENCE, LLC, priority 2021, published 2024)
